Assay results: patent US11214594B2, “Antimicrobial peptide having synergistic antibacterial effect with antibiotics on multidrug resistant bacteria, and use thereof” (priority 2016, dated 2022)
In brackets after ≈: the same amount, converted by molar mass. Where a SMILES comes first, the peptide text is derived from it. [ ]: non-standard residue; d: D form.

Assays:
[1] = test system: MDRST 8009; type: cell-based, Salmonella typhimurium; settings: agent alone
Outline: (§1)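 Broth microdilution in MH medium: strains diluted to 2×10^6 CFU were mixed with equal volumes of twofold serial peptide dilutions in MH medium. MIC was taken as the lowest peptide concentration preventing bacterial growth.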

[2] = test system: MDRPA 2003; type: cell-based, Pseudomonas aeruginosa
Outline: as §1

[3] = test system: MDRPA 2002; type: cell-based, Pseudomonas aeruginosa
Outline: as §1

[4] = test system: S. aureus; experiment: microbe, parasite or virus in culture; type: cell-based, Staphylococcus aureus
Outline: as §1

[5] = test system: MRSA 3126; type: cell-based, Staphylococcus aureus; settings: 3126
Outline: as §1

[6] = test system: MRSA 3114; type: cell-based, Staphylococcus aureus; settings: 3114
Outline: as §1

[7] = test system: gram-negative bacteria; experiment: MIC, summary statements for gram-negative bacteria; type: cell-based; settings: gram-negative bacteria
Experimental: For the antibacterial activity, a minimal inhibitory concentration (MIC) of a peptide in which fungus bodies were not split in an MH medium with sufficient nutrients was measured.
Specifically, the strains described in the following [Table 2] were purchased and diluted with an MH medium such that the number of bacteria was 2×10^6 colony-forming units (CFUs), 100 μl of each of the diluted strains was aliquoted into a 96-well microtiter plate, and then 100 μl of a peptide solution diluted with the MH medium (solution diluted stepwise at 2: 1) was added to each well.

[8] = test system: MDREC 1238; type: cell-based, Escherichia coli
Outline: as §1

[9] = test system: S. typhimurium; experiment: microbe, parasite or virus in culture; type: cell-based, Salmonella typhimurium
Outline: as §1

[10] = test system: MDREC 1229; experiment: microbe, parasite or virus in culture; type: cell-based, Escherichia coli
Outline: as §1

[11] = test system: E. coli; experiment: microbe, parasite or virus in culture; type: cell-based, Escherichia coli; settings: 16 h
Outline: as §1

[12] = test system: B. subtilis; experiment: microbe, parasite or virus in culture; type: cell-based, Bacillus subtilis
Outline: as §1

[13] = test system: MDREC 1229; experiment: MIC of antibiotic during combined treatment with antimicrobial peptide; type: cell-based, Escherichia coli
Outline: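 Strains in MH medium at 2×10^6 CFU/ml were mixed with peptide diluted stepwise (2:1) from its MIC, then antibiotic dilutions in MH medium were added to give the antibiotic MIC. The reversed set-up, peptide titrated against fixed antibiotic, gave the peptide MIC.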

[14] = test system: MDRAB 12036; type: cell-based, Acinetobacter baumannii
Outline: as §1

[15] = test system: multi-drug resistant bacteria; experiment: MIC, summary statements for multi-drug resistant bacteria; type: cell-based
Outline: as §1

[16] = peptide treatment concentration 1 μg/ml
[17] = peptide treatment concentration 2 μg/ml
[18] = peptide treatment concentration 4 μg/ml
[19] = peptide treatment concentration 6 μg/ml
[20] = peptide treatment concentration 8 μg/ml
[21] = peptide treatment concentration 16 μg/ml
[22] = peptide treatment concentration 32 μg/ml
[23] = peptide treatment concentration 64 μg/ml

SMILES | Minimal inhibitory concentration MIC [1] [µg/mL] | Minimal inhibitory concentration MIC [2] [µg/mL] | Minimal inhibitory concentration MIC [3] [µg/mL] | Minimal inhibitory concentration MIC [4] [µg/mL] | Minimal inhibitory concentration MIC [5] [µg/mL] | Minimal inhibitory concentration MIC [6] [µg/mL] | Minimal inhibitory concentration MIC [8] [µg/mL] | Minimal inhibitory concentration MIC [9] [µg/mL] | Minimal inhibitory concentration MIC [10] [µg/mL] | Minimal inhibitory concentration MIC [11] [µg/mL] | Minimal inhibitory concentration MIC [12] [µg/mL] | Antibiotic MIC, Erythromycin [13, 16] [µg/mL] | Antibiotic MIC, Linezolid [13, 16] [µg/mL] | Antibiotic MIC, Vancomycin [13, 16] [µg/mL] | Antibiotic MIC, Erythromycin [13, 17] [µg/mL] | Antibiotic MIC, Linezolid [13, 17] [µg/mL] | Antibiotic MIC, Vancomycin [13, 17] [µg/mL] | Antibiotic MIC, Erythromycin [13, 18] [µg/mL] | Antibiotic MIC, Linezolid [13, 18] [µg/mL] | Antibiotic MIC, Vancomycin [13, 18] [µg/mL] | further results
CC[C@H](C)[C@H](NC(=O)[C@H](CCCCN)NC(=O)[C@H](Cc1c[nH]c2ccccc12)NC(=O)[C@@H](N)CCCNC(=N)N)C(=O)N[C@@H](Cc1ccccc1)C(=O)N[C@@H](CCCCN)C(=O)N[C@@H](CCCCN)C(=O)N[C@H](C(=O)N1CCC[C@H]1C(=O)N[C@@H](CCCCN)C(=O)N[C@@H](Cc1ccccc1)C(=O)N[C@@H](CC(C)C)C(=O)N[C@@H](Cc1c[nH]cn1)C(=O)N[C@@H](CO)C(=O)N[C@@H](Cc1c[nH]c2ccccc12)C(=O)N[C@@H](CCCCN)C(=O)N[C@@H](CCCCN)C(=O)N[C@@H](Cc1ccccc1)C(N)=O)[C@@H](C)CC [PapMA-3, RWK IFK KIP KFL HSW KKF-NH2] (H-RWKIFKKIPKFLHSWKKF-NH2; N-terminus assumed) | 64 (≈ 26.5 µM) | 16 (≈ 6.62 µM) | 16 (≈ 6.62 µM) | >128 | >128 | >128 | 64 (≈ 26.5 µM) | 32 (≈ 13.2 µM) | 32 (≈ 13.2 µM) | 32 (≈ 13.2 µM) | >128 | 128 | >128 | >128 | 32 | 64 | >128 | 32 | 64 | >128 | Antibacterial activity (in words) [7]: comparable to papiliocin or melittin; Antibiotic MIC, Erythromycin [13, 19]: 16 µg/mL; Antibiotic MIC, Linezolid [13, 19]: 32 µg/mL; Antibiotic MIC, Vancomycin [13, 19]: >128 µg/mL; Antibiotic MIC, Erythromycin [13, 20]: 4 µg/mL; Antibiotic MIC, Linezolid [13, 20]: 16 µg/mL; Antibiotic MIC, Vancomycin [13, 20]: 128 µg/mL; Antibiotic MIC, Erythromycin [13, 21]: 0.25 µg/mL; Antibiotic MIC, Linezolid [13, 21]: 4 µg/mL; Antibiotic MIC, Vancomycin [13, 21]: 16 µg/mL; Antibiotic MIC, Erythromycin [13, 22]: 0 µg/mL; Antibiotic MIC, Linezolid [13, 22]: 0 µg/mL; Antibiotic MIC, Vancomycin [13, 22]: 0 µg/mL; Antibiotic MIC, Erythromycin [13, 23]: 0 µg/mL; Antibiotic MIC, Linezolid [13, 23]: 0 µg/mL; Antibiotic MIC, Vancomycin [13, 23]: 0 µg/mL; Minimal inhibitory concentration MIC [14]: 16 µg/mL (≈ 6.62 µM)
CC[C@H](C)[C@H](NC(=O)[C@H](CCCCN)NC(=O)[C@H](Cc1c[nH]c2ccccc12)NC(=O)[C@@H](N)CCCNC(=N)N)C(=O)N[C@@H](Cc1ccccc1)C(=O)N[C@@H](CCCCN)C(=O)N[C@@H](CCCCN)C(=O)N[C@H](C(=O)N1CCC[C@H]1C(=O)N[C@@H](CCCCN)C(=O)N[C@@H](Cc1ccccc1)C(=O)N[C@@H](CC(C)C)C(=O)N[C@@H](Cc1c[nH]cn1)C(=O)N[C@@H](CO)C(=O)N[C@@H](Cc1c[nH]c2ccccc12)C(=O)N[C@@H](CCCCN)C(=O)N[C@@H](CCCCN)C(=O)N[C@@H](Cc1c[nH]c2ccccc12)C(N)=O)[C@@H](C)CC [PapMA-4, RWK IFK KIP KFL HSW KKW-NH2] (H-RWKIFKKIPKFLHSWKKW-NH2; N-terminus assumed) | 32 (≈ 13 µM) | 16 (≈ 6.51 µM) | 16 (≈ 6.51 µM) | >128 | >128 | >128 | 32 (≈ 13 µM) | 32 (≈ 13 µM) | 32 (≈ 13 µM) | 16 (≈ 6.51 µM) | >128 | 64 | >128 | >128 | 32 | 64 | >128 | 16 | 64 | >128 | Antibacterial activity (in words) [7]: comparable to papiliocin or melittin; Antibiotic MIC, Erythromycin [13, 19]: 16 µg/mL; Antibiotic MIC, Linezolid [13, 19]: 64 µg/mL; Antibiotic MIC, Vancomycin [13, 19]: >128 µg/mL; Antibiotic MIC, Erythromycin [13, 20]: 4 µg/mL; Antibiotic MIC, Linezolid [13, 20]: 16 µg/mL; Antibiotic MIC, Vancomycin [13, 20]: 128 µg/mL; Antibiotic MIC, Erythromycin [13, 21]: 0.25 µg/mL; Antibiotic MIC, Linezolid [13, 21]: 4 µg/mL; Antibiotic MIC, Vancomycin [13, 21]: 32 µg/mL; Antibiotic MIC, Erythromycin [13, 22]: 0 µg/mL; Antibiotic MIC, Linezolid [13, 22]: 0 µg/mL; Antibiotic MIC, Vancomycin [13, 22]: 0 µg/mL; Antibiotic MIC, Erythromycin [13, 23]: 0 µg/mL; Antibiotic MIC, Linezolid [13, 23]: 0 µg/mL; Antibiotic MIC, Vancomycin [13, 23]: 0 µg/mL; Minimal inhibitory concentration MIC [14]: 16 µg/mL (≈ 6.51 µM)
CC[C@H](C)[C@H](NC(=O)[C@H](CCCCN)NC(=O)[C@H](Cc1c[nH]c2ccccc12)NC(=O)[C@@H](N)CCCNC(=N)N)C(=O)N[C@@H](Cc1ccccc1)C(=O)N[C@@H](CCCCN)C(=O)N[C@@H](CCCCN)C(=O)N[C@H](C(=O)N[C@H](CCCCN)C(=O)N[C@@H](CCCCN)C(=O)N[C@@H](CC(C)C)C(=O)N[C@@H](CC(C)C)C(=O)N[C@@H](Cc1c[nH]cn1)C(=O)N[C@@H](CO)C(=O)N[C@@H](Cc1ccccc1)C(=O)N[C@@H](CCCCN)C(=O)N[C@@H](CCCCN)C(=O)N[C@@H](Cc1ccccc1)C(N)=O)[C@@H](C)CC [PapMA-15, RWK IFK KIk KLL HSF KKF-NH2] (H-RWKIFKKI[dK]KLLHSFKKF-NH2; N-terminus assumed) | 64 (≈ 26.9 µM) | 32 (≈ 13.5 µM) | 32 (≈ 13.5 µM) | >128 | >128 | >128 | 32 (≈ 13.5 µM) | 32 (≈ 13.5 µM) | 32 (≈ 13.5 µM) | 32 (≈ 13.5 µM) | >128 | >128 | >128 | >128 | 32 | 128 | >128 | 16 | 64 | >128 | Peptide MIC, peptide alone [10]: 32 µg/mL; Antibiotic MIC, Erythromycin [13, 19]: 8 µg/mL; Antibiotic MIC, Linezolid [13, 19]: 64 µg/mL; Antibiotic MIC, Vancomycin [13, 19]: 64 µg/mL; Antibiotic MIC, Erythromycin [13, 20]: 4 µg/mL; Antibiotic MIC, Linezolid [13, 20]: 32 µg/mL; Antibiotic MIC, Vancomycin [13, 20]: 32 µg/mL; Antibiotic MIC, Erythromycin [13, 21]: 1 µg/mL; Antibiotic MIC, Linezolid [13, 21]: 16 µg/mL; Antibiotic MIC, Vancomycin [13, 21]: 16 µg/mL; Antibiotic MIC, Erythromycin [13, 22]: 0 µg/mL; Antibiotic MIC, Linezolid [13, 22]: 0 µg/mL; Antibiotic MIC, Vancomycin [13, 22]: 0 µg/mL; Antibiotic MIC, Erythromycin [13, 23]: 0 µg/mL; Antibiotic MIC, Linezolid [13, 23]: 0 µg/mL; Antibiotic MIC, Vancomycin [13, 23]: 0 µg/mL; Antibacterial activity relative to PapMA-1 [15]: twice to four times higher; Minimal inhibitory concentration MIC [14]: 32 µg/mL (≈ 13.5 µM)
